Test results from the NIST ThermoML archive (doi:10.1016/j.jct.2013.09.039).
± gives the expanded uncertainty stated by the source.

Settings: Liquid, Vibrating tube method

Cc1ccc(C)cc1 [1,4-dimethylbenzene]
mass density [kg/m3]
Settings | 100 kPa | 5000 kPa | 10000 kPa | 20000 kPa | 30000 kPa | 40000 kPa
288.15 K | 864.9 ± 2 | 868.3 ± 2 | 871.8 ± 2 | 878.1 ± 2 | 884 ± 2 | 889.7 ± 2
298.15 K | 856.2 ± 2 | 860.2 ± 2 | 863.5 ± 2 | 870.1 ± 2 | 876.5 ± 2 | 882.2 ± 2
308.15 K | 847.5 ± 2 | 851.4 ± 2 | 855.2 ± 2 | 862.1 ± 2 | 868.6 ± 2 | 874.8 ± 2
